Laboratory results: patent US20240366555A1, “SELECTIVE MTORC2 INHIBITOR AND USES THEREOF” (ALIAD BIOPHARMA, priority 2021, published 2024)

Assays:
[1] = tested on: Pten KO mice; assay: Social-open field test in Pten KO mice; format: in vivo; settings: 5 or 10 mg/kg, FIG. 3
Procedure: (§1) As Pten KO mice, Ptenf/f_cre/cre KO mice or Ptenf/f_cre/++ Het mice (KD) were obtained by mating Pten floxed/floxed mice and CAMKII-cre mice. DMSO or athyriol was intraperitoneally injected at 5 or 10 mg/kg for 2 weeks from the age of mice of 6 weeks, and a behavioral test was performed in 7 days after administration. Pten floxed/floxed mice were used as littermates of the same age as a normal control group.
When athyriol was administered to the Pten KO mice, in order to confirm the sociability disorder was improved, a social-open field test was performed. After adapting the Pten-KO mice to the record environment for 30 minutes, they were adapted to the open filed test space made of black acrylic for 10 minutes. An unfamiliar mouse was placed in a test space in a transparent acrylic cage allowing minimal contact with the sense of smell. The movement of the test mouse was recorded for 10 minutes and analyzed with ethovision 3.1 program. Then, sociability was measured by setting 10 cm around the cylinder where the unfamiliar mouse was placed.
The social-open field test is measuring sociability as the time spent in a social interaction zone in contact with other mice in an open space, and measures the time of actually contacting also in the contact space, or sniffling toward other mice. […]

[2] = tested on: Pten KO mice; assay: Macrocephaly alleviation (brain weight) in Pten KO mice; format: in vivo; set-up: average brain weight: unit not given here; settings: for average brain weight: FIG. 5
Procedure: as §1
When athyriol was administered into Pten KO mice, whether the weight of brain increased compared to a mouse without Pten knockout was reduced was confirmed. In other words, whether athyriol had efficacy of alleviating macrocephaly symptoms was confirmed through the following experiment.
Specifically, the body weight was measured after the aforementioned behavioral test of Experimental examples 1-2 to 1-6, and then animals were sacrificed. After removing the skull, the brain including forebrain, midbrain and hindbrain was extracted and the ratio of brain weight to body weight and the body weight were measured.

[3] = target: T1, mTORC2 located in late endosome of dendritic spines (Rattus norvegicus, UniProt P42346); assay: LocaTOR2 assay-immunofluorescent staining in primary cultured cerebral neurons (mGluR-dependent mTORC2 activation); format: cell-based; settings: neurons pretreated with norathyriol; FIG. 11b
T1 construct: endogenous in cells; host or cells: primary cultured cerebral neurons from SD-rat E16 embryos, transduced by lentivirus only with mCherry-FRB-AKT2 and Rab7-FKBP
Text: By combining Loca-TOR2 assay and immunofluorescence staining, changes in mTORC2 activity located in the late endosome during the induction process of long term depression (LTD) occurring in dendritic spines of primarily cultured cerebral neurons were investigated, and the inhibitory effect of norathyriol on these changes was investigated.
Specifically, mCherry-FRB-AKT2 and Rab7-FKBP were introduced using a lentiviral vector on the primarily cultured cerebral neuron on the DIV5 day, and AP21967 was treated on the DIV17 day to induce binding of FRB and FKBP, and thereby, mCherry-FRB-AKT2 was located in the late endosome. After that, DHPG, which is an mGluR agonist inducing long-term depression, was treated. […] In addition, by measuring Ser473 phosphorylation staining of mCherry-FRB-AKT2 overlapped with PSD-95 staining, which is a protein located in dendritic spines, by immunofluorescent staining, changes in mTORC2 activity located in the late endosome in the dendritic spines can be investigated. After staining using a phospho-Ser473 AKT antibody by immunofluorescent staining, the degree of AKT Ser473 phosphorylation was quantified by counting the number of each fluorescent puncta larger than 0.4 μm or more in size in the dendrites (green). In addition, the dendritic spines were observed by staining with PSD95 antibody (yellow), and the location of mCherry-FRB-AKT2 was investigated by observing mCherry fluorescence (cherry color).
SD-rat gestational age 16-day mice (Orient Bio) were purchased and the mice were anesthetized with CO2 and then embryos were taken out. Until the forebrain was isolated and the meninges were removed, it was performed by the same method as the hippocampal culture, and when the cerebrum was isolated, the dorsal cortex or ventral cortex was cut with a bended syringe needle, and it was collected in new HBSS. The tissue isolated and collected was transferred to a 15 ml tube with a Pasteur pipette, and then in order to remove the remaining meninges and blood vessels, and the like, 2 ml HBSS and 0.25% trypsin of 2 ml were added, and it was reacted in a 37° C. shaker for 10-15 minutes. The cells were settled and the supernatant was removed leaving 1-2 ml, and then trypsin was inactivated by adding DMEM comprising the equal amount of 20% FBS. After centrifugation at 700 rpm for 15 minutes, the supernatant was discarded all and the collected tissue was released, and then Neurobasal culture medium (+glutamate) of 2 ml was added, and titrated with a pipette, and the cells were isolated by changing to a pipette with a narrow end. […] The number of cells was measured with a hemocytometer, and then the cells were seeded in a coated culture dish. […]

[4] = tested on: Arc protein expression; assay: mGluR-dependent Arc protein expression in cerebral neurons; format: cell-based
Procedure: When mGluR is activated in dendritic spines of cerebral neurons, Arc protein is synthesized, and the Arc protein promotes endocytosis of an AMPA receptor to form LTD.
Specifically, DHPG was treated to cerebral neurons, which were obtained by primary culture of white mouse embryo E16 cerebral regions and differentiated for […] (DIV21), for 5 minutes or 10 minutes to activate mGluR. As an Arc antibody, Arc protein (green) and PSD95 (red), which is a marker antibody of postsynaptic density of a synapse, were under
After double immunofluorescent staining of Arc protein with an Arc antidody (green) and PSD95, a marker of postsynaptic density of synapse, with an PSD95 antibody (red), Arc expression in dendritic spines was quantified as the number of Arc+PSD95 double stained puncta per 20 μm neurite length by confocal scanning microscopic scanning.

SMILES | increase of direct counterpart searching time [1] [%] | brain weight corrected by body weight, increase compared to control group ([2]; 5 mg/kg) | average brain weight ([2]; 5 mg/kg for 14 days) | brain weight corrected by body weight, increase compared to control group ([2]; 10 mg/kg) [times] | average brain weight ([2]; 10 mg/kg for 14 days) | alleviation of macrocephaly symptoms ([2]; 5 or 10 mg/kg for 14 days) [%] | AKT-Ser473 phosphorylation induced by DHPG [3] | increase of Arc protein synthesis (immunoblot of cell lysate) ([4]; DHPG-induced, FIG. 12b) | Arc synthesis in dendritic spines (immunofluorescent staining) ([4]; pretreated for 2 hours before treating DHPG, FIG. 12a)
COc1cc(O)c2c(=O)c3cc(O)c(O)cc3oc2c1 [athyriol, 1,6,7-Trihydroxy-3-methoxy-9H-xanthen-9-on] | 6 | about 1.3 times | 517 | ~1.26 | 515 | ≥ 68 | – | – | –
O=c1c2cc(O)c(O)cc2oc2cc(O)cc(O)c12 [norathyriol, 1,3,6,7-tetrahydroxy-9H-xanthen-9-one] | – | – | – | – | – | – | measured similarly to the control group level | inhibited in a dose-dependent manner | the increase of Arc synthesis by DHPG was not found
